The text below walks through data of patent publication US20110232180A1, “Method of applying calcium magnesium acetate to affect growth of unwanted broadleaf weeds in lawn grasses” (priority 2010, published 2011).

The subject of one data set is testosterone in men. To be noted: by-product of triclopyr; cited from earlier work.
Data set [1] has as its system environment, ducks and fish. To be noted: cited from earlier work.
For the next data set, the system named is violet weeds. Description: calcium magnesium acetate grains or triclopyr liquid applied to violet weeds in lawn grasses. In kind it is in vivo. The text has this:
(§1) These are not mandatory steps, it simply helps reduce fall off of the grains on the leaves. Alternatively, without the binder and size reduction, the grains could rest by simple placement on the leaves of the weed.

The next data set relates to broadleaf weeds. The following applies: granular substance applied to the leaves of the weeds.
Description: A novel unknown use of calcium magnesium acetate is as an effective eliminator of certain broadleaf weeds which invade lawn grasses. When applying the granular substance to the leaves of the weeds, it can produce desired results, very quickly, much faster then many previously known toxic compositions. This method can work in as little as two days.
as §1

With tricloropyridine, in the data set on testosterone in men, the “effect on testosterone in men” value was “lower testosterone in men”.
In the case of `O=C(O)COc1nc(Cl)c(Cl)cc1Cl` [triclopyr, reference compound], the “toxicity to the environment” value in data set [1] is “slightly toxic to the environment, ducks and fish”. Further, in the data set with violet weeds (liquid form applied once a month to lawns with violet weeds), the “treatments needed to affect violet weeds” value was “several monthly treatments just to diminish part of the plant”.
For the compound calcium magnesium acetate, the “toxicity to the environment” value in data set [1] was “non-toxic to the environment”. Besides, the “effect on lawn grasses around or near the violet weeds” value in the data set on common lawn grasses (applied by the method (grains isolated on the target weed, limited amount)) is recorded as “little or no adverse affect”. In addition, the “effect on lawn grasses” value in the data set with common lawn grasses (extreme over applications of the granular product) was “did affect common lawn grasses”. Moreover, the “time in which the method works on broadleaf weeds” value with broadleaf weeds is on record as “two”. Besides, the “time in which the grains eliminate / control violet weeds” value in the data set with violet weeds (grains applied to leaves of violet weeds in lawn) was “two”.
